From patent US20250324972A1, “METHOD OF CONTROLLING NEMATODES” (priority 2022, published 2025) come the findings set out here.

Each structure is given as a SMILES string.

For data set [1], the system named is Tomatoes of Aryman variety. Put plainly: Open field trial on tomato: phytotoxicity evaluation. The data set is classed as in vivo. As for the experimental part: An open field trial was conducted. Tomatoes of Aryman variety was used. The soil type was sandy loam.
Fertilizers were applied prior to bed formation. Plots were formed, with a total area of 25 m^2 per plot. Drip lines were laid in the plot beds (plot beds occupy half the field). Treatments were arranged in a randomized complete block design with two replications.
Fluensulfone emulsifiable concentrate (Nimitz® 480 EC) was used for the fluensulfone treatments. Additionally, comparative nematicides fluopyram (as Fluopyram® 500 SC) and carbofuran (as Carbofuran® 3% CG), were tested. Untreated control plots were formed for comparison.
In Table 1, time of application is expressed by DAT, which indicates the number of days relative to the date of planting.
Treatments 2 and 3 (of the invention): fluensulfone in the form of an emulsifiable concentrate (Nimitz® 480 EC) was applied at the day of planting (DAT=0), followed by a post-plant application twenty five days later (DAT=25). The application method consisted of the following steps. First, the soil was wetted by irrigation water. Then, at the day of planting, appropriate amounts of Nimitz® 480 EC were diluted in water and applied to achieve the application rates tabulated in Table 1. It was repeated on DAT=25. […]
Phytotoxicity was evaluated on DAT=7, 21, 32, and 46. […]

The test system of the next data set is root-knot nematode. Put plainly: Open field trial on tomato: root galling assessed with the root galling index (Bridge and Page chart). The data set is classed as in vivo.

Source text for root-knot nematode: The rating method is based on assigning an integer number in the interval from 0 (no knots on the roots) to 10 (all roots severely knotted indicative of plant death).
Treatments 2 and 3 (of the invention): fluensulfone in the form of an emulsifiable concentrate (Nimitz® 480 EC) was applied at the day of planting (DAT=0), followed by a post-plant application twenty five days later (DAT=25). The application method consisted of the following steps. First, the soil was wetted by irrigation water. Then, at the day of planting, appropriate amounts of Nimitz® 480 EC were diluted in water and applied to achieve the application rates tabulated in Table 1. […]
Root galling was assessed in the open-field trial, on DAT=25, 50, and 75, using the root galling index. […]

`O=C(NCCc1ncc(C(F)(F)F)cc1Cl)c1ccccc1C(F)(F)F` [fluopyram] registered a Phytotoxicity score in data set [1] (evaluated on DAT=7, 21, 32, and 46, fluopyram 500 SC 0 DAT @ 1250 ml/ha) of 65.
Turning to `O=S(=O)(CCC(F)=C(F)F)c1ncc(Cl)s1` [fluensulfone, 5-chloro-2-(3,4,4-trifluoro-but-3-ene-1-sulfonyl)-1,3-thiazole], in data set [1] (entire range of application rates tested, evaluated on DAT=7, 21, 32, and 46), the Phytotoxicity entry is listed as “No phytotoxicity was observed”. In the data set on root-knot nematode (application initiated on the day of planting/transplanting, even seventy days after planting/transplanting), the “average root galling indexes (RGI)” value is “below 3”. Moreover, the root galling index result in the data set with root-knot nematode (method of the invention, at least over 50 days and even 75 days after planting) is on record as “below 2”.
